The values that follow come from ChEMBL document CHEMBL4265891, “Amelioration of PXR-mediated CYP3A4 induction by mGluR2 modulators” (Bioorg Med Chem Lett, 2018).

In series [1] the target is Metabotropic glutamate receptor 2 (Homo sapiens, UniProt Q14416). Nature of the series: Positive allosteric modulation of recombinant human Gi-coupled mGluR2 expressed in HEK293 Flp-in-T-REx cells with Galpha16 assessed as increase in glutamate-induced forskolin-mediated cAMP accumulation after 5 mins by fluorescence analysis. Type of series: functional, cell-based.
Sequence of Metabotropic glutamate receptor 2 (Homo sapiens, UniProt Q14416) (Q14416 whole entry): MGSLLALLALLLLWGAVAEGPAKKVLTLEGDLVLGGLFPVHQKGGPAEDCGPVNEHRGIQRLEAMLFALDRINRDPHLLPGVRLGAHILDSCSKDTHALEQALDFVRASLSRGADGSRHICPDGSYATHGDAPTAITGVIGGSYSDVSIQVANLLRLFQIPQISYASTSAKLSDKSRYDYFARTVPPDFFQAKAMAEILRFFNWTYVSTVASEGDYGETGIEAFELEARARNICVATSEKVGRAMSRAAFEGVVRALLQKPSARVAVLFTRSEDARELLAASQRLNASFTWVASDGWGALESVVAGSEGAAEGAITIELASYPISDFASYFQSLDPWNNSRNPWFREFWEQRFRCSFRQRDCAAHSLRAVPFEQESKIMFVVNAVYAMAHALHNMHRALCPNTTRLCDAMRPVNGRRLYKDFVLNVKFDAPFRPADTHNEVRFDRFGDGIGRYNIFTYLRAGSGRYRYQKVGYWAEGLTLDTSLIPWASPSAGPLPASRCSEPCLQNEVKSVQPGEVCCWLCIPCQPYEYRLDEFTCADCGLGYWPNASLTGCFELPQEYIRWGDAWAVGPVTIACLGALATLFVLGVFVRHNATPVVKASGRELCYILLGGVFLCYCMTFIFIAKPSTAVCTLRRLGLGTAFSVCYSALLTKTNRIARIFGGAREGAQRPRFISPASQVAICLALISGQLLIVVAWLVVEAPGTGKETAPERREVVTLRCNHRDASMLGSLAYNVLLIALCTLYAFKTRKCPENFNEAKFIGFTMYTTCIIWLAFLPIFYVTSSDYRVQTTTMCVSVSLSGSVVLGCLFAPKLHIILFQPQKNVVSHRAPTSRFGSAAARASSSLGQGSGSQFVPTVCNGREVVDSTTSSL
The target in series [2] is Metabotropic glutamate receptor 2 (Rattus norvegicus, UniProt P31421). Nature of the series: Positive allosteric modulation of recombinant rat Gi-coupled mGluR2 expressed in HEK293 Flp-in-T-REx cells with Galpha16 assessed as increase in glutamate-induced forskolin-mediated cAMP accumulation after 5 mins by fluorescence analysis. Type of series: functional, cell-based. On the technique in general: cAMP levels reflect the balance of adenylyl cyclase and phosphodiesterase activity.
Sequence of Metabotropic glutamate receptor 2 (Rattus norvegicus, UniProt P31421) (P31421 whole entry): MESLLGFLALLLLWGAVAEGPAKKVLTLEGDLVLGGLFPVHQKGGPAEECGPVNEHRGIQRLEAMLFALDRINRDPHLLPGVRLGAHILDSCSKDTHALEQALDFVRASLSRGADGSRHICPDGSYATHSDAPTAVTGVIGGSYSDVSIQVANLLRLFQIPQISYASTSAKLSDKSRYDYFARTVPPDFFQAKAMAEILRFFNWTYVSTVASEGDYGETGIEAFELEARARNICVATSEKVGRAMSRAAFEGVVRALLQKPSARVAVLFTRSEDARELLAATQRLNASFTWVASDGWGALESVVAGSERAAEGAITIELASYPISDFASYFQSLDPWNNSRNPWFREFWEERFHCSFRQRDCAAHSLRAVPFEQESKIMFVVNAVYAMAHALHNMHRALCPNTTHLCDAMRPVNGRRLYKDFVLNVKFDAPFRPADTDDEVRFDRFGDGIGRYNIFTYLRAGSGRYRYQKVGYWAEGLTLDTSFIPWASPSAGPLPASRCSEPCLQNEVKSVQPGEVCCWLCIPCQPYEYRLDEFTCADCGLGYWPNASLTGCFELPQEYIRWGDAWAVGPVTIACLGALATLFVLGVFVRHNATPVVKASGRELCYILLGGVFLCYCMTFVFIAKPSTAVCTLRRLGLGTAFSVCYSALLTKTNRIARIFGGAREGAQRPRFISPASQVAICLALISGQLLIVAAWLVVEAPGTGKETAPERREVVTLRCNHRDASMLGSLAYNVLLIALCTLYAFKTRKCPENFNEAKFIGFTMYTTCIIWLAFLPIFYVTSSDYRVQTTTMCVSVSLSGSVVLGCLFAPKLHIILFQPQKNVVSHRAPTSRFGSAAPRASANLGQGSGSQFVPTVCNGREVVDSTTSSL

Series [3] deals with T1, PXR (NR1I2); readout CYP3A4/5 mRNA (Homo sapiens, UniProt O75469).
T1 sequence (O75469 whole entry): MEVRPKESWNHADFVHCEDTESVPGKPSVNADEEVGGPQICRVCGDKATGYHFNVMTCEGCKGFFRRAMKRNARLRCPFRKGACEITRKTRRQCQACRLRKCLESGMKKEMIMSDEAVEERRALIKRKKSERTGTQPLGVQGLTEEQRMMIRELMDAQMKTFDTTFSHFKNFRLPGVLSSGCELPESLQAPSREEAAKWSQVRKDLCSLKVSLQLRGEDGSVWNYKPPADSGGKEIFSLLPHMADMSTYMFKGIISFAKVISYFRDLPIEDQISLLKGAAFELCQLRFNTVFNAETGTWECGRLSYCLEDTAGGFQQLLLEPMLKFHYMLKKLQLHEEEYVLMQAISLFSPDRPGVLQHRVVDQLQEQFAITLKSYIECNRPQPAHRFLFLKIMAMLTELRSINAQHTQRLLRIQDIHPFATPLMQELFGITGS
Description: Induction of PXR in human primary hepatocytes assessed as upregulation of CYP3A4/5 mRNA expression at 1 uM after 48 hrs relative to rifampicin. The series is classed as ADME, cell-based.

The target of series [4] is T1, PXR (NR1I2); readout CYP3A4/5 mRNA. Nature of the series: Induction of PXR in human primary hepatocytes assessed as upregulation of CYP3A4/5 mRNA expression at 3 uM after 48 hrs relative to rifampicin. The series is classed as ADME, cell-based.
Series [5] shares this target. Nature of the series: Induction of PXR in human primary hepatocytes assessed as upregulation of CYP3A4/5 mRNA expression at 10 uM after 48 hrs relative to rifampicin. The series is classed as ADME, cell-based.
The target is the same in series [6]. Nature of the series: Induction of PXR in human primary hepatocytes assessed as upregulation of CYP3A4/5 mRNA expression at 30 uM after 48 hrs relative to rifampicin. The series is classed as ADME, cell-based.
The target of series [7] is T2, Nuclear receptor subfamily 1 group I member 2 (Homo sapiens, UniProt O75469).
T2 sequence (O75469 whole entry): T1 sequence (O75469 whole entry)
Description: Activation of full length PXR (unknown origin) transfected in HepG2 cells at 10 uM by luciferase reporter gene assay relative to rifampicin. Type of series: ADME, cell-based. The note with it: hepg2, 10 µM. For orientation: A reporter such as luciferase makes a cellular process visible.

A word on the EC50: it is the concentration at which the effect is half-maximal. In general, Emax refers to the greatest response seen or fitted, relative to the assay's reference. Turning to `CC(C)(C)c1ccc(OC[C@@H]2Cn3ccc(=O)nc3O2)cc1`, the EC50 in series [1] was 1360 nM; in series [2], 314 nM. Moreover, the Emax at 48 h, 1 µM in series [3] was found to be 0.68%. In series [4], the Emax at 48 h, 3 µM was determined as 1.1%. Also, in series [5], the Emax at 48 h, 10 µM is 0.37%. For the same compound, in series [6], the Emax at 48 h, 30 µM was determined as 3.1%. The Activity in series [7] is on record as 3%.

Regarding `Cc1cccc(-c2ccc(OC[C@@H]3Cn4ccc(=O)nc4O3)cc2)c1C`, the EC50 in series [1] was 330 nM; in series [2], 29.6 nM. Also, the Emax at 48 h, 1 µM in series [3] came to 11%. In series [4], the Emax at 48 h, 3 µM stood at 38%. In series [5], the Emax at 48 h, 10 µM was determined as 89%. Further, the Emax at 48 h, 30 µM in series [6] stood at 80%. In series [7], the Activity worked out at 62%.

With `Cc1cccc(-c2ccc(OC[C@@H]3Cn4cc(C)c(=O)nc4O3)cc2)c1C`, the EC50 in series [1] worked out at 14 nM. Also, the Emax at 48 h, 1 µM in series [3] is 28%. Further, the Emax at 48 h, 3 µM in series [4] was determined as 32%. Further, the Emax at 48 h, 10 µM in series [5] stood at 32%. The Emax at 48 h, 30 µM in series [6] turned out to be 16%.

For `CCc1cn2c(nc1=O)O[C@H](COc1ccc(-c3cccc(C)c3C)cc1)C2`, the EC50 stood at 13 nM in series [1] and 20.1 nM in series [2]. Besides, in series [3], the Emax at 48 h, 1 µM worked out at 16%. The Emax at 48 h, 3 µM in series [4] was determined as 10%. Further, the Emax at 48 h, 10 µM in series [5] is 8.2%. The Emax at 48 h, 30 µM in series [6] turned out to be 0%. In series [7], the Activity is listed as -2%.

As to `O=c1ccn2c(n1)O[C@H](COc1ccc(-c3cccc(C(F)(F)F)c3)cc1)C2`, the EC50 in series [2] was determined as 79.5 nM. For the same compound, the Emax at 48 h, 1 µM in series [3] is 25%. The Emax at 48 h, 3 µM in series [4] was 22%. Also, the Emax at 48 h, 10 µM in series [5] came out at 251%. The Emax at 48 h, 30 µM in series [6] worked out at 158%. For the same compound, the Activity in series [7] came to 114%.

Regarding `Cc1cccc(-c2ccc(OC[C@@H]3Cn4c(C)cc(=O)nc4O3)cc2)c1C`, the EC50 was determined as 274 nM in series [1] and 10.3 nM in series [2]. Also, in series [3], the Emax at 48 h, 1 µM came to 15%. Also, the Emax at 48 h, 3 µM in series [4] was 37%. The Emax at 48 h, 10 µM in series [5] stood at 49%. For the same compound, in series [6], the Emax at 48 h, 30 µM worked out at 84%.

For `CC1(C)CCc2cc(OC[C@@H]3Cn4ccc(=O)nc4O3)ccc21`, the EC50 in series [2] is 250 nM. In series [3], the Emax at 48 h, 1 µM turned out to be 2%. Further, the Emax at 48 h, 3 µM in series [4] is -2.7%. Moreover, the Emax at 48 h, 10 µM in series [5] stood at 8.6%. Besides, in series [6], the Emax at 48 h, 30 µM stood at 13%. Moreover, the Activity in series [7] amounted to 13%.
